Results as given in ChEMBL document CHEMBL1152132 (2008).
Active and inactive are the calls of the source. No cut-off for these calls is given here.

What was measured:
[1] = Ratio of compound ED50 to paclitaxel ED50 for tubulin assembly
[2] = tested on: Endothelial cell; test: Binding affinity to Pgp in bovine brain microvessel endothelial cells assessed as increase in rhodamine uptake at 10 uM relative to control; format: cell-based; conditions: Bos taurus
[3] = tested on: MCF7; test: Ratio of compound ED50 to paclitaxel ED50 for human MCF7 cells; format: functional
[4] = tested on: NCI/ADR-RES; test: Ratio of compound ED50 to paclitaxel ED50 for human NCI/ADR-RES cells; format: functional
[5] = tested on: MCF7; test: Cytotoxicity against human MCF7 cells; format: functional; conditions: read-out: ED50 (the source's name)
[6] = tested on: NCI/ADR-RES; test: Cytotoxicity against human NCI/ADR-RES cells; format: functional; conditions: read-out: ED50 (the source's name)

Compound	Ratio ED50 [1]	Activity [2]	Ratio ED50 [3]	Ratio ED50 [4]	EC50 [5]	EC50 [6]
CC(=O)O[C@@]12CO[C@@H]1C[C@H](O)[C@@]1(C)C(=O)[C@H](OC(=O)CCCC(=O)N(C)C)C3=C(C)[C@@H](OC(=O)[C@H](O)[C@@H](NC(=O)c4ccccc4)c4ccccc4)C[C@@](O)([C@@H](OC(=O)c4ccccc4)[C@H]21)C3(C)C	2.2	Active	–	–	–	–
CNC(=O)CCC(=O)O[C@H]1C(=O)[C@@]2(C)[C@H]([C@H](OC(=O)c3ccccc3)[C@]3(O)C[C@H](OC(=O)[C@H](O)[C@@H](NC(=O)c4ccccc4)c4ccccc4)C(C)=C1C3(C)C)[C@]1(OC(C)=O)CO[C@@H]1C[C@@H]2O	0.8	Active	7.9	6	–	–
CNC(=O)CCCC(=O)O[C@H]1C[C@H]2OC[C@@]2(OC(C)=O)[C@H]2[C@H](OC(=O)c3ccccc3)[C@]3(O)C[C@H](OC(=O)[C@H](O)[C@@H](NC(=O)c4ccccc4)c4ccccc4)C(C)=C([C@@H](OC(C)=O)C(=O)[C@]12C)C3(C)C	0.8	Active	3.7	3.2	–	–
CC(=O)O[C@H]1C(=O)[C@@]2(C)[C@H]([C@H](OC(=O)c3ccccc3)[C@]3(O)C[C@H](OC(=O)[C@H](O)[C@@H](NC(=O)c4ccccc4)c4ccccc4)C(C)=C1C3(C)C)[C@]1(OC(C)=O)CO[C@@H]1C[C@@H]2O [PACLITAXEL]	–	–	–	–	3.2 nM	1500 nM
CC(=O)O[C@H]1C(=O)[C@]2(C)[C@@H](OC(=O)CCCC(N)=O)C[C@H]3OC[C@@]3(OC(C)=O)[C@H]2[C@H](OC(=O)c2ccccc2)[C@]2(O)C[C@H](OC(=O)[C@H](O)[C@@H](NC(=O)c3ccccc3)c3ccccc3)C(C)=C1C2(C)C	0.6	Active	–	–	–	–
CC(=O)O[C@@]12CO[C@@H]1C[C@H](O)[C@@]1(C)C(=O)[C@H](OC(=O)CCC(=O)O)C3=C(C)[C@@H](OC(=O)[C@H](O)[C@@H](NC(=O)c4ccccc4)c4ccccc4)C[C@@](O)([C@@H](OC(=O)c4ccccc4)[C@H]21)C3(C)C	1.7	–	–	–	–	–
CNC(=O)CCCC(=O)O[C@H]1C(=O)[C@@]2(C)[C@H]([C@H](OC(=O)c3ccccc3)[C@]3(O)C[C@H](OC(=O)[C@H](O)[C@@H](NC(=O)c4ccccc4)c4ccccc4)C(C)=C1C3(C)C)[C@]1(OC(C)=O)CO[C@@H]1C[C@@H]2O	1.8	Active	–	–	–	–
COC(=O)CCC(=O)O[C@H]1C(=O)[C@@]2(C)[C@H]([C@H](OC(=O)c3ccccc3)[C@]3(O)C[C@H](OC(=O)[C@H](O)[C@@H](NC(=O)c4ccccc4)c4ccccc4)C(C)=C1C3(C)C)[C@]1(OC(C)=O)CO[C@@H]1C[C@@H]2O	1	–	2.5	0.4	–	–
CC(=O)O[C@H]1C(=O)[C@]2(C)[C@@H](OC(=O)CCCC(=O)O)C[C@H]3OC[C@@]3(OC(C)=O)[C@H]2[C@H](OC(=O)c2ccccc2)[C@]2(O)C[C@H](OC(=O)[C@H](O)[C@@H](NC(=O)c3ccccc3)c3ccccc3)C(C)=C1C2(C)C	1	–	–	–	–	–
CC(=O)O[C@H]1C(=O)[C@]2(C)[C@@H](OC(=O)CCC(N)=O)C[C@H]3OC[C@@]3(OC(C)=O)[C@H]2[C@H](OC(=O)c2ccccc2)[C@]2(O)C[C@H](OC(=O)[C@H](O)[C@@H](NC(=O)c3ccccc3)c3ccccc3)C(C)=C1C2(C)C	0.6	Active	–	–	–	–
COC(=O)CCC(=O)O[C@H]1C[C@H]2OC[C@@]2(OC(C)=O)[C@H]2[C@H](OC(=O)c3ccccc3)[C@]3(O)C[C@H](OC(=O)[C@H](O)[C@@H](NC(=O)c4ccccc4)c4ccccc4)C(C)=C([C@@H](OC(C)=O)C(=O)[C@]12C)C3(C)C	1.2	Active	–	–	–	–
CC(=O)O[C@@]12CO[C@@H]1C[C@H](O)[C@@]1(C)C(=O)[C@H](OC(=O)CCCC(=O)O)C3=C(C)[C@@H](OC(=O)[C@H](O)[C@@H](NC(=O)c4ccccc4)c4ccccc4)C[C@@](O)([C@@H](OC(=O)c4ccccc4)[C@H]21)C3(C)C	1.8	–	–	–	–	–
CC(=O)O[C@H]1C(=O)[C@]2(C)[C@@H](OC(=O)CCCC(=O)N(C)C)C[C@H]3OC[C@@]3(OC(C)=O)[C@H]2[C@H](OC(=O)c2ccccc2)[C@]2(O)C[C@H](OC(=O)[C@H](O)[C@@H](NC(=O)c3ccccc3)c3ccccc3)C(C)=C1C2(C)C	0.7	Active	–	–	–	–
CC(=O)O[C@H]1C(=O)[C@]2(C)[C@@H](OC(=O)CCC(=O)O)C[C@H]3OC[C@@]3(OC(C)=O)[C@H]2[C@H](OC(=O)c2ccccc2)[C@]2(O)C[C@H](OC(=O)[C@H](O)[C@@H](NC(=O)c3ccccc3)c3ccccc3)C(C)=C1C2(C)C	3.8	–	–	–	–	–
CC(=O)O[C@@]12CO[C@@H]1C[C@H](O)[C@@]1(C)C(=O)[C@H](OC(=O)CCC(=O)N(C)C)C3=C(C)[C@@H](OC(=O)[C@H](O)[C@@H](NC(=O)c4ccccc4)c4ccccc4)C[C@@](O)([C@@H](OC(=O)c4ccccc4)[C@H]21)C3(C)C	1.6	Active	2.1	2.7	–	–
CC(=O)O[C@@]12CO[C@@H]1C[C@H](O)[C@@]1(C)C(=O)[C@H](OC(=O)CCCC(N)=O)C3=C(C)[C@@H](OC(=O)[C@H](O)[C@@H](NC(=O)c4ccccc4)c4ccccc4)C[C@@](O)([C@@H](OC(=O)c4ccccc4)[C@H]21)C3(C)C	1.8	Active	–	–	–	–
CC(=O)O[C@H]1C(=O)[C@]2(C)[C@@H](OC(=O)CCC(=O)N(C)C)C[C@H]3OC[C@@]3(OC(C)=O)[C@H]2[C@H](OC(=O)c2ccccc2)[C@]2(O)C[C@H](OC(=O)[C@H](O)[C@@H](NC(=O)c3ccccc3)c3ccccc3)C(C)=C1C2(C)C	1.1	Active	–	–	–	–
CC(=O)O[C@@]12CO[C@@H]1C[C@H](O)[C@@]1(C)C(=O)[C@H](OC(=O)CCC(N)=O)C3=C(C)[C@@H](OC(=O)[C@H](O)[C@@H](NC(=O)c4ccccc4)c4ccccc4)C[C@@](O)([C@@H](OC(=O)c4ccccc4)[C@H]21)C3(C)C	0.4	Active	10	6	–	–
CNC(=O)CCC(=O)O[C@H]1C[C@H]2OC[C@@]2(OC(C)=O)[C@H]2[C@H](OC(=O)c3ccccc3)[C@]3(O)C[C@H](OC(=O)[C@H](O)[C@@H](NC(=O)c4ccccc4)c4ccccc4)C(C)=C([C@@H](OC(C)=O)C(=O)[C@]12C)C3(C)C	0.8	Active	–	–	–	–
